According to patent US4231936A, “Mitomycin C derivatives” (priority 1977, dated 1980):

Columns and labels:
[1] = system: Klebsiella pneumoniae ATCC 10031; assay: Minimum inhibitory concentration (Table I); type: cell-based
From the text: (§1) Comparative data similarly obtained by using mitomycin A, mitomycin C and 7-N-phenyl mitomycin C are also shown in this table

[2] = system: Staphylococcus aureus ATCC 6538P; assay: Minimum inhibitory concentration (Table I); type: cell-based
From the text: as §1

[3] = system: Shigella sonnei ATCC 9290; assay: Minimum inhibitory concentration (Table I); type: cell-based
From the text: as §1

[4] = system: Bacillus subtilis ATCC 10707; assay: Minimum inhibitory concentration (Table I); type: cell-based
From the text: as §1

P-388 cells [5] = assay: Antitumor activity, P-388 leukemia intraperitoneally inoculated, compound i.p. (Example II); type: in vivo, CDF1 mice
Protocol: (§2) The following treatment was performed to make these compounds water-soluble for use in the experiments. A test compound was dissolved in ethanol (about 1000 times by weight) HCO-60, a commercially available surfactant was added in amounts of about 3 times by weight. The mixture was well stirred to dissolve the HCO-60. Ethanol was removed from the solution under reduced pressure by using a rotary evaporator. After this, a test solution was prepared by adding a suitable amount of a physiological saline solution with agitation.
Seven-day-old leukemia cells obtained from the ascites of DBA/2 mice inoculated intraperitoneally with 10^6 P-388 cells were used. A cell suspension containing 5×10^6 cells per ml was prepared by using a sterilized physiological saline solution. The test mice (CDF1 mice, 20-25 g) were inoculated with 0.2 ml of the cell suspension containing 1×10^6 cells intraperitoneally. After 24 hours, the mice were divided into groups (each group consisting of 5 mice) and the test solutions were administered intraperitoneally once only. […] In order to evaluate the effects of the test samples, the average survival days were calculated 30 and 60 days after tumor implantation and compared with those of the control group (untreated group). Antitumor activities of the test compounds are indicated by ILS % (increase in life span%) on the basis of the control group.

P-388 cells [6] = assay: Antitumor effect, P-388 cells intravenously inoculated, compound i.v. (Example III); type: in vivo, Mice; details: 30 days
Protocol: as §2
Mice were inoculated intravenously with P-388 cells (10^6 /0.2 ml) in a similar manner to that described above in Example II. […] Untreated mice and mice administered with Tween 80 were used for control purpose.

[7] = Number of leucocytes in peripheral blood of Sarcoma-180 bearing mice (Example IV); type: in vivo, dd-strain mice; set-up: key: D*: All mice in the group died
Protocol: as §2
(§3) Sarcoma 180 cells were inoculated intraperitoneally into dd-strain mice. After 7 days following tumor implantation, ascites tumor cells were obtained from the mice. The cells were washed and a tumor cell suspension containing 5×10^7 cells per ml was prepared with physiological saline solution. 0.1 ml of the thus-prepared suspension containing 5×10^6 cells was inoculated into the left inguinal region of each of the test mice (dd-strain; weight 19±1 g; divided into groups, each group consisting of 5 mice). After 24 hours following the inoculation, the test compounds were administered to the mice individually and intraperitoneally. After 4 days following the inoculation, the peripherical blood of the treated mice was obtained by the puncture of the orbital vein. The number of the leucocytes in the peripheral blood was measured by using Toa Microcell Counter CC-108 (a commercial product of Toa Medical Electronics Co., Ltd., Japan). In order to evaluate the antitumor effects, the tumor was removed 7 days after the inoculation and weighed. Its weight was compared with the average weight of the tumors of the control group (untreated) to give the weight ratios (T/C) shown in Table 5.

Solubility in water = type: physicochemical
Sarcoma 180 cells = assay: Effect on Sarcoma-180, tumor weight ratio (Example IV); type: in vivo, dd-strain mice; set-up: key: D*: All mice in the group died
Protocol: as §2, §3

[8] = Acute toxicity determination, intraperitoneal; set-up: species or system Mice (dd-strain); details: mouse, in vivo, ip; dd mice, single i.p., 14 days, Behrens-Karber
Protocol: as §2
Mice [dd-strain; weight 20±1 g; each group consisted of 5 mice] were used for this experiment. An individual test solution was administered to each mouse by intraperitoneal injection. The test solutions (each 0.5 ml) were prepared by stepwise dilution.

[9] = 5 mg/kg i.p. once, determined after 30 days
[10] = 5 mg/kg i.p. once, determined after 60 days
[11] = 10 mg/kg i.p. once, determined after 30 days
[12] = 10 mg/kg i.p. once, determined after 60 days
[13] = 15 mg/kg i.p. once, determined after 30 days
[14] = 15 mg/kg i.p. once, determined after 60 days
[15] = 20 mg/kg i.p. once, determined after 30 days
[16] = 20 mg/kg i.p. once, determined after 60 days
[17] = 5 mg/kg i.p., 4 days after inoculation
[18] = 10 mg/kg i.p., 4 days after inoculation
[19] = 20 mg/kg i.p., 4 days after inoculation
[20] = 5 mg/kg i.p., tumor weighed 7 days after inoculation
[21] = 10 mg/kg i.p., tumor weighed 7 days after inoculation
[22] = 20 mg/kg i.p., tumor weighed 7 days after inoculation

## CO[C@@]12[C@H](COC(N)=O)C3=C(C(=O)C(C)=C(Nc4ccccc4)C3=O)N1C[C@@H]1N[C@@H]12 [III, 7-N-phenyl mitomycin C, reference compound]
[1]
  minimum inhibitory concentration: 0.098
[2]
  minimum inhibitory concentration: < 0.025
[3]
  minimum inhibitory concentration: 1.563
[4]
  minimum inhibitory concentration: < 0.025
P-388 cells [5]; [9]
  Average survival days: 17.84 ± 1.2 days
  ILS % (increase in life span): 82%
  Number of survivors: 0/5
P-388 cells [5]; [10]
  Average survival days: 17.8 ± 1.2 days
  ILS % (increase in life span): 82%
  Number of survivors: 0/5
P-388 cells [5]; [11]
  Average survival days: 21.8 ± 4.3 days
  ILS % (increase in life span): 122%
  Number of survivors: 1/5
P-388 cells [5]; [12]
  Average survival days: 22.04 ± 4.6 days
  ILS % (increase in life span): 124%
  Number of survivors: 0/5
P-388 cells [5]; [13]
  Average survival days: 21.2 ± 2.8 days
  ILS % (increase in life span): 116%
  Number of survivors: 0/5
P-388 cells [5]; [14]
  Average survival days: 21.2 ± 2.8 days
  ILS % (increase in life span): 116%
  Number of survivors: 0/5
P-388 cells [5]; [15]
  Average survival days: 21.6 ± 4.4 days
  ILS % (increase in life span): 120%
  Number of survivors: 1/5
P-388 cells [5]; [16]
  Average survival days: 21.8 ± 4.8 days
  ILS % (increase in life span): 122%
  Number of survivors: 0/5
P-388 cells [6]; 5 mg/kg i.v. once
  Average survival days: 11.4 ± 1.4 days
  ILS %: 33%
P-388 cells [6]; 10 mg/kg i.v. once
  Average survival days: 13.6 ± 1.4 days
  ILS %: 54%
P-388 cells [6]; 15 mg/kg i.v. once
  Average survival days: 15.8 ± 1.5 days
  ILS %: 84%
P-388 cells [6]; 20 mg/kg i.v. once
  Average survival days: 18.0 ± 1.7 days
  ILS %: 109%
P-388 cells [6]; 30 mg/kg i.v. once
  Average survival days: 10.0 ± 2.3 days
  ILS %: 16%
[7]; [17]
  Average number of leucocytes: 81.4 ± 21.2 × 10^2 /mm^3
[7]; [18]
  Average number of leucocytes: 60.8 ± 18.7 × 10^2 /mm^3
[7]; [19]
  Average number of leucocytes: 31.8 ± 11.9 × 10^2 /mm^3
[7]; 40 mg/kg i.p., death symbol in place of count
  Average number of leucocytes: D*
Solubility in water
  solubility in water: low solubility in water
Sarcoma 180 cells; [20]
  T/C (tumor weight ratio): 0.84
Sarcoma 180 cells; [21]
  T/C (tumor weight ratio): 0.59
Sarcoma 180 cells; [22]
  T/C (tumor weight ratio): 0.21
Sarcoma 180 cells; 40 mg/kg i.p., death symbol in place of T/C
  T/C (tumor weight ratio): D*

## CO[C@@]12[C@H](COC(N)=O)C3=C(C(=O)C(C)=C(Nc4ccc(N)cc4)C3=O)N1C[C@@H]1N[C@@H]12 [V, 7-N-(p-aminophenyl)-mitomycin C]
[1]
  minimum inhibitory concentration: 0.049
[2]
  minimum inhibitory concentration: < 0.025
[3]
  minimum inhibitory concentration: 3.125
[4]
  minimum inhibitory concentration: < 0.025
P-388 cells [5]; [9]
  Average survival days: 20.0 ± 3.0 days
  ILS % (increase in life span): 104%
  Number of survivors: 0/5
P-388 cells [5]; [10]
  Average survival days: 20.0 ± 3.0 days
  ILS % (increase in life span): 104%
  Number of survivors: 0/5
P-388 cells [5]; [11]
  Average survival days: 24.6 ± 2.9 days
  ILS % (increase in life span): 151%
  Number of survivors: 1/5
P-388 cells [5]; [12]
  Average survival days: 26.4 ± 6.4 days
  ILS % (increase in life span): 169%
  Number of survivors: 0/5
P-388 cells [5]; [13]
  Average survival days: 21.6 ± 6.4 days
  ILS % (increase in life span): 120%
  Number of survivors: 1/5
P-388 cells [5]; [14]
  Average survival days: 21.8 ± 6.7 days
  ILS % (increase in life span): 122%
  Number of survivors: 0/5
P-388 cells [5]; [15]
  Average survival days: 18.4 ± 6.1 days
  ILS % (increase in life span): 88%
  Number of survivors: 1/5
P-388 cells [5]; [16]
  Average survival days: 24.4 ± 17.9 days
  ILS % (increase in life span): 149%
  Number of survivors: 1/5
[8]
  LD50 at 336 h: 18 mg/kg
P-388 cells [6]; 5 mg/kg i.v. once
  Average survival days: 14.0 ± 0 days
  ILS %: 63%
P-388 cells [6]; 10 mg/kg i.v. once
  Average survival days: 17.8 ± 1.9 days
  ILS %: 107%
P-388 cells [6]; 15 mg/kg i.v. once
  Average survival days: 23.0 ± 1.7 days
  ILS %: 167%
P-388 cells [6]; 20 mg/kg i.v. once
  Average survival days: 15.8 ± 5.4 days
  ILS %: 84%
P-388 cells [6]; 30 mg/kg i.v. once
  Average survival days: 8.4 ± 1.0 days
  ILS %: -2%
[7]; [17]
  Average number of leucocytes: 58.2 ± 17.1 × 10^2 /mm^3
[7]; [18]
  Average number of leucocytes: 34.2 ± 11.2 × 10^2 /mm^3
[7]; [19]
  Average number of leucocytes: 24.0 ± 10.2 × 10^2 /mm^3
[7]; 40 mg/kg i.p., 4 days after inoculation
  Average number of leucocytes: 13.6 ± 4.6 × 10^2 /mm^3
Solubility in water
  solubility in water: low solubility in water
Sarcoma 180 cells; [20]
  T/C (tumor weight ratio): 0.71
Sarcoma 180 cells; [21]
  T/C (tumor weight ratio): 0.37
Sarcoma 180 cells; [22]
  T/C (tumor weight ratio): 0.24
Sarcoma 180 cells; 40 mg/kg i.p., tumor weighed 7 days after inoculation
  T/C (tumor weight ratio): 0.09
